# Activity calls are given as the source filed them. No rule for the calls is given here.
# System: GENE-TOX genotoxicity assays, various organisms and cells
# Experiment: GENE-TOX mutagenicity studies
# Conditions: for call: Assay Type: In vivo carcinogenicity studies
# Description: GENE-TOX provides genetic toxicology (mutagenicity) test data from expert peer review of open scientific literature for more than 3,000 chemicals from the United States Environmental Protection Agency (EPA). GENE-TOX was established to select assay systems for evaluation, review data in the scientific literature, and recommend proper testing protocols and evaluation procedures for these systems.
# GENE-TOX covers the years 1991 - 1998. It is no longer updated.
# This is an archive assay for GENE-TOX mutagenicity studies.
# [1] = Species/Cell Type: Bacillus subtilis (H17 vs M45), Assay Type: Rec-assay, spot test, DNA effects (bacterial DNA repair), Assay Code: REW+, Evaluation Type: Evaluation A (Pre-1980)
# [2] = Species/Cell Type: Human lymphocytes, Assay Type: Sister-chromatid exchange (SCE) in vitro, Assay Code: SCL+D, Dose Response: With dose response, Evaluation Type: Evaluation B (Post-1980)
# [3] = Species/Cell Type: Human, Assay Type: Sister-chromatid exchange (SCE) in vitro, Assay Code: SC1+D, Dose Response: With dose response, Evaluation Type: Evaluation B (Post-1980)
# [4] = Species/Cell Type: Nonhuman, Assay Type: Chromosome aberrations in vitro, Assay Code: CY&+, Evaluation Type: Evaluation A (Pre-1980)
# [5] = Species/Cell Type: Nonhuman, Assay Type: Sister-chromatid exchange (SCE) in vitro, Assay Code: SC2+, Evaluation Type: Evaluation B (Post-1980)
# [6] = Species/Cell Type: Nonhuman, Assay Type: Sister-chromatid exchange (SCE) in vitro, Assay Code: SC2+D, Dose Response: With dose response, Evaluation Type: Evaluation B (Post-1980)
# [7] = Species/Cell Type: Salmonella typhimurium (one or more of the five standard strains: TA98, TA100, TA1535, TA1537, and TA1538), Assay Type: Histidine reverse gene mutation, Ames assay, Assay Code: SAL+, Evaluation Type: Evaluation A (Pre-1980)
# [8] = Species/Cell Type: Salmonella typhimurium (one or more of the five standard strains: TA98, TA100, TA1535, TA1537, and TA1538), Assay Type: Histidine reverse gene mutation, Ames assay, Assay Code: SALT, Evaluation Type: Evaluation A (Pre-1980)
# [9] = Species/Cell Type: Chinese hamster lung (V79) cells, Assay Type: Forward gene mutation at the HPRT or ouabain locus, Assay Code: V79+, Evaluation Type: Evaluation A (Pre-1980)
# [10] = Species/Cell Type: Schizosaccharomyces pombe, Assay Type: Reverse gene mutation, Assay Code: YEZ+, Evaluation Type: Evaluation A (Pre-1980)
# [11] = Species/Cell Type: Fischer rat embryo (RLV/1706) cells, Assay Type: Cell transformation, viral enhanced, Assay Code: CTR+, Evaluation Type: Evaluation A (Pre-1980)
# [12] = Species/Cell Type: Nonhuman, Assay Code: CCG+, Evaluation Type: Evaluation A (Pre-1980)
# [13] = Species/Cell Type: Nonhuman, Assay Type: Sister-chromatid exchange (SCE) in vivo, Assay Code: SC3+, Evaluation Type: Evaluation B (Post-1980)
# [14] = Species/Cell Type: Salmonella typhimurium (one or more of the five standard strains: TA98, TA100, TA1535, TA1537, and TA1538), Assay Type: Histidine reverse gene mutation, Ames assay, Assay Code: SAL-, Evaluation Type: Evaluation A (Pre-1980)
# [15] = Species/Cell Type: Neurospora crassa, Assay Type: Reverse gene mutation, Assay Code: NER+, Evaluation Type: Evaluation A (Pre-1980)
# [16] = Species/Cell Type: Drosophila melanogaster, Assay Type: Sex-linked recessive lethal gene mutation, Assay Code: SRL+, Evaluation Type: Evaluation A (Pre-1980)
# [17] = Species/Cell Type: Drosophila melanogaster, Assay Type: Sex-linked recessive lethal gene mutation, Assay Code: SRLT, Evaluation Type: Evaluation A (Pre-1980)
# [18] = Species/Cell Type: Mouse, Sex: Male, Assay Type: Sperm morphology, Assay Code: SPI-, Evaluation Type: Evaluation A (Pre-1980)
smiles,measurement,setting,value
[O]=[Cr](=[O])([OH])[O][Cr](=[O])(=[O])[OH],mutagenic call,[1],active; positive
same,mutagenic call,"Species/Cell Type: Chinese hamster ovary (CHO) cells, Assay Type: Forward gene mutation at the HPRT locus, Assay Code: CHO+, Evaluation Type: Evaluation B (Post-1980)",active; positive
same,mutagenic call,[2],active; positive
same,mutagenic call,[3],active; positive
same,mutagenic call,"Species/Cell Type: Mammalian polychromatic erythrocytes, Assay Type: Micronucleus test, chromosome aberrations, Assay Code: MNT+, Evaluation Type: Evaluation B (Post-1980)",active; positive
same,mutagenic call,[4],active; positive
same,mutagenic call,[5],active; positive
same,mutagenic call,[6],active; positive
same,mutagenic call,[7],active; positive
same,mutagenic call,"Species/Cell Type: Syrian hamster embryo (SHE) cells, Assay Type: Cell transformation, clonal assay, Assay Code: CTC+, Evaluation Type: Evaluation A (Pre-1980)",active; positive
Nc1c(N=Nc2ccc(S(=O)(=O)O)cc2)cc(N=Nc2ccc(S(=O)(=O)O)cc2)c(N)c1N=Nc1ccc(S(=O)(=O)O)cc1,mutagenic call,[8],no conclusion
N#CO,mutagenic call,"Species/Cell Type: Arabidopsis species, Assay Type: Gene mutation, Assay Code: ARM+, Evaluation Type: Evaluation A (Pre-1980)",active; positive
COc1ccc(CCC(=O)c2c(O)cc(O)cc2O)cc1O,mutagenic call,"Species/Cell Type: Mammalian polychromatic erythrocytes, Assay Type: Micronucleus test, chromosome aberrations, Assay Code: MNTT, Evaluation Type: Evaluation B (Post-1980)",no conclusion
ClC1CO1 (centres undefined),mutagenic call,[9],active; positive
same,call,"Species/Cell Type: Nonhuman, Assay Code: CCG+L, Evaluation Type: Evaluation A (Pre-1980)",active; positive
same,mutagenic call,"Species/Cell Type: Saccharomyces cerevisiae, Assay Type: Mitotic recombination or gene conversion, Assay Code: YEC+, Evaluation Type: Evaluation A (Pre-1980)",active; positive
same,mutagenic call,[7],active; positive
same,mutagenic call,[10],active; positive
CC/C(=C(/CC)c1ccc(O)cc1)c1ccc(O)cc1,mutagenic call,"Species/Cell Type: Escherichia coli polA (W3119 vs P3478), Assay Type: Rec-assay, DNA effects (bacterial DNA repair), Assay Code: RE1T, Evaluation Type: Evaluation A (Pre-1980)",no conclusion
same,mutagenic call,[11],active; positive
same,mutagenic call,"Species/Cell Type: Human diploid fibroblasts, Assay Type: Unscheduled DNA synthesis (UDS) in vitro, DNA effects, Assay Code: UDHT, Evaluation Type: Evaluation A (Pre-1980)",no conclusion
same,mutagenic call,[2],active; positive
same,mutagenic call,[3],active; positive
same,mutagenic call,"Species/Cell Type: Human, Sex: Male, Assay Type: Sperm morphology, Assay Code: SPHT, Evaluation Type: Evaluation A (Pre-1980)",no conclusion
same,mutagenic call,"Species/Cell Type: Mammalian polychromatic erythrocytes, Assay Type: Micronucleus test, chromosome aberrations, Assay Code: MNT+, Evaluation Type: Evaluation A (Pre-1980)",active; positive
same,mutagenic call,"Species/Cell Type: Mouse (BALB/c-3T3) cells, Assay Type: Cell transformation, Assay Code: CTB-, Evaluation Type: Evaluation A (Pre-1980)",inactive; negative
same,mutagenic call,"Species/Cell Type: Mouse lymphoma (L5178Y) cells, Assay Type: Forward gene mutation at the thymidine kinase (TK) locus, chromosome aberrations, Assay Code: L51+, Evaluation Type: Evaluation A (Pre-1980)",active; positive
same,mutagenic call,"Species/Cell Type: Mouse, Sex: Male, Assay Type: Sperm morphology, Assay Code: SPIT, Evaluation Type: Evaluation A (Pre-1980)",no conclusion
same,mutagenic call,"Species/Cell Type: Neurospora crassa, Assay Type: Aneuploidy, chromosome aberrations, Assay Code: NEN-, Evaluation Type: Evaluation A (Pre-1980)",inactive; negative
same,call,[12],active; positive
same,mutagenic call,[5],active; positive
same,mutagenic call,"Species/Cell Type: Nonhuman, Assay Type: Sister-chromatid exchange (SCE) in vitro, Assay Code: SC2-, Evaluation Type: Evaluation A (Pre-1980)",inactive; negative
same,mutagenic call,[13],active; positive
same,mutagenic call,[14],inactive; negative
same,mutagenic call,"Species/Cell Type: Salmonella typhimurium, Assay Type: Forward and reverse gene mutation, body fluid assay, Assay Code: BFU-, Evaluation Type: Evaluation A (Pre-1980)",inactive; negative
same,mutagenic call,"Species/Cell Type: Syrian hamster embryo (SHE) cells, Assay Type: Cell transformation, clonal assay, Assay Code: CTCT, Evaluation Type: Evaluation A (Pre-1980)",no conclusion
same,mutagenic call,"Species/Cell Type: Tradescantia species, Assay Type: Gene mutation, Assay Code: TRM+D, Dose Response: With dose response, Evaluation Type: Evaluation A (Pre-1980)",active; positive
ClCC1(Cl)OC1Cl (centres undefined),mutagenic call,"Species/Cell Type: Neurospora crassa, Assay Type: Forward gene mutation, Assay Code: NEF+, Evaluation Type: Evaluation A (Pre-1980)",active; positive
same,mutagenic call,[15],active; positive
O[C@H]1C=Cc2cc3c(ccc4ccccc43)cc2[C@@H]1O,mutagenic call,"Species/Cell Type: Chinese hamster lung (V79) cells, Assay Type: Forward gene mutation at the HPRT or ouabain locus, Assay Code: V79-*, Activation: With metabolic activation, Evaluation Type: Evaluation A (Pre-1980)",inactive; negative
same,call,"Species/Cell Type: Nonhuman, Assay Code: CCGT, Evaluation Type: Evaluation A (Pre-1980)",no conclusion
same,mutagenic call,[6],active; positive
same,mutagenic call,[8],no conclusion
CC(=O)O,mutagenic call,"Species/Cell Type: Human lymphocytes, Assay Type: Sister-chromatid exchange (SCE) in vitro, Assay Code: SCL-, Evaluation Type: Evaluation A (Pre-1980)",inactive; negative
same,mutagenic call,"Species/Cell Type: Human, Assay Type: Sister-chromatid exchange (SCE) in vitro, Assay Code: SC1-, Evaluation Type: Evaluation A (Pre-1980)",inactive; negative
same,mutagenic call,[14],inactive; negative
same,mutagenic call,"Species/Cell Type: Syrian hamster embryo (SA7/SHE) cells, Assay Type: Cell transformation, viral enhanced, Assay Code: CT7-, Evaluation Type: Evaluation A (Pre-1980)",inactive; negative
CCCNP(=O)(N1CC1)N1CC1,mutagenic call,[16],active; positive
same,mutagenic call,[4],active; positive
same,mutagenic call,[10],active; positive
CC(=O)C=O,mutagenic call,[6],active; positive
CC(=O)OCN(C)N=O,mutagenic call,"Species/Cell Type: Salmonella typhimurium, Assay Type: Forward and reverse gene mutation, host-mediated assay, Assay Code: HMA+, Evaluation Type: Evaluation A (Pre-1980)",active; positive
CON,mutagenic call,[17],no conclusion
same,mutagenic call,"Species/Cell Type: Drosophila melanogaster, Sex: Male, Assay Type: Heritable translocation test, chromosome aberrations, Assay Code: DHTT, Evaluation Type: Evaluation A (Pre-1980)",no conclusion
same,mutagenic call,[15],active; positive
same,mutagenic call,"Species/Cell Type: Saccharomyces cerevisiae, Assay Type: Mitotic recombination or gene conversion, Assay Code: YEH+, Evaluation Type: Evaluation A (Pre-1980)",active; positive
S=C=S,mutagenic call,"Species/Cell Type: Human, Sex: Male, Assay Type: Sperm morphology, Assay Code: SPH+, Evaluation Type: Evaluation A (Pre-1980)",active; positive
COc1ccc2c3c([nH]c2c1)C(C)=NCC3,mutagenic call,[8],no conclusion
O=c1[nH]c(=O)c2[nH]cnc2[nH]1,mutagenic call,[17],no conclusion
C=C/C=C/Cl,mutagenic call,[16],active; positive
O=[As](=O)O[As](=O)=O,mutagenic call,[1],active; positive
same,mutagenic call,[5],active; positive
N#Cc1ccc(N)cc1,mutagenic call,[18],inactive; negative
CCCCCN(CCCCC)N=O,mutagenic call,[9],active; positive
same,mutagenic call,"Species/Cell Type: Salmonella typhimurium (one or more of the five standard strains: TA98, TA100, TA1535, TA1537, and TA1538), Assay Type: Histidine reverse gene mutation, Ames assay, Assay Code: SAL+*, Activation: With metabolic activation, Evaluation Type: Evaluation A (Pre-1980)",active; positive
Cc1ccccc1N,mutagenic call,"Species/Cell Type: Escherichia coli polA (W3119 vs P3478), Assay Type: Rec-assay, DNA effects (bacterial DNA repair), Assay Code: RE1+, Evaluation Type: Evaluation A (Pre-1980)",active; positive
same,mutagenic call,[11],active; positive
same,mutagenic call,"Species/Cell Type: Mammalian polychromatic erythrocytes, Assay Type: Micronucleus test, chromosome aberrations, Assay Code: MNTT, Evaluation Type: Evaluation A (Pre-1980)",no conclusion
same,mutagenic call,[18],inactive; negative
same,call,[12],active; positive
same,mutagenic call,[6],active; positive
same,mutagenic call,[13],active; positive
same,mutagenic call,"Species/Cell Type: Saccharomyces cerevisiae, Assay Type: Mitotic recombination or gene conversion, Assay Code: YEH-, Evaluation Type: Evaluation A (Pre-1980)",inactive; negative
same,mutagenic call,[8],no conclusion

# Reference: PubChem BioAssay AID1259408 (Genetic Toxicology Data Bank (GENE-TOX), 2018)
